Consider three compounds from US10391101B2, “Derivatives of 7-fluoro-8-chloro-5H-dibenzo [B,E,] [1,4] diazepine and use thereof” (VALENTEK LLC, priority 2014, dated 2019).

Data set [1] can be described thus: Sub-chronic toxicity, morphological parameters of blood (neutrophil kinetics). The format is in vivo. The note with it: rats, intragastric 5 mg/kg daily for 28 days. From the text: The positive effect of the introduction of fluorine has been observed in pre-clinical studies of sub-chronic toxicity. […]. Increase in the number of neutrophils has been observed among rats after administration of aminoglutethimide, which also involves a high risk of agranulocytosis (Ng, W. et. al., Chem Res Toxicol, 2013, 26, 1272-81). Thus changes in the kinetics of neutrophils after intake of the medication can serve as a biomarker to predict the risk of agranulocytosis.
The neutrophil kinetics has been studied within comparative tests of sub-chronic toxicity. Studies have been conducted using rats upon intragastric administration of the substance at a dose of 5 mg/kg. The test substances were administered daily for 28 days. Each experimental group was composed of 10 animals of each sex.

Data set [2] in a line: 5-oxytriptophan hyperkinesia (head twitches). The format is in vivo. The note with it: mice, intragastric 1.0-10.0 mg/kg, 5-oxytriptophan 300 mg/kg i.p. On the procedure: It is known that the precursor of serotonin (5-oxytriptophan, 5-OT) causes a specific hyperkinesia in mice in the form of head-twitching with average duration of 30-60 minutes, which is explained by the activation of serotonergic system of the CNS. […] Each experimental group included 10 male mice weighing 20-22 g. The test substances were administered intragastrically at 1.0, 2.5, 5.0 and 10.0 mg/kg 30 minutes before the intraperitoneal administration of 5-oxytriptophan at a dose of 300 mg/kg. We counted the number of head twitches per 1 minute at intervals of 10 minutes during 60 minutes.

The conditions of data set [3]: cited from earlier work.
For data set [4] the following is noted: Leucht et al., Lancet 2013; cited from earlier work.
Data set [5] can be described thus: Sedation study, total distance traveled. As to conditions: CF-1 mice, oral 1, 5 and 10 mg/kg.
In a further data set the target is H1 receptor (Homo sapiens, UniProt P35367). The data set is described as follows: H1 histamine receptor functional experiment, antagonism set-up (Fluo-4 NW Ca2+ fluorescence). The format is cell-based. On the procedure: (§1) The functional activity of compounds on the H4 receptor was determined according to the change in the cell conductibility induced by redistribution of intracellular calcium. The activity for H1 receptor was determined according to the fluorescence of Fluo-4 NW indicator introduced into cells induced by the change in Ca2+ ion concentration in the cytosol.
(§2) Functional experiments were performed in the set-up of agonism and antagonism. In the set-up of agonism the test substance was added directly to the cells expressing the receptor and was determined as the dependence of the response intensity on the substance concentration. Concentration at which the half-peak response (EC50) could be reached served as a measure of activity of agonists.
(§3) In the set-up of antagonism, the ability of test substances to block the action of agonists was assessed. For this purpose, cells were incubated with the test substances, then the reference agonists were added in the system and the functional response was determined.

The next data set addresses H4 receptor (Homo sapiens, UniProt Q9H3N8). The experiment in a line: H4 histamine receptor functional experiment, agonism set-up (cell conductibility). The format is cell-based. As for the experimental part: as §1, §2, §3
For the next data set, the target named is D2 dopamine receptors (Homo sapiens, UniProt P14416). The data set is described as follows: cell-based. The note with it: determined by IC50 values in the set-up of antagonism. On the procedure: (§4) The response on cells expressing D2 receptors was determined according to the change in the cell conductibility induced by redistribution of intracellular calcium. For D4 receptor the level of second messenger—cAMP was taken as the criterion.

Another data set addresses T1, D4 dopamine receptors (Homo sapiens, UniProt P21917).
T1 sequence (P21917 1-419): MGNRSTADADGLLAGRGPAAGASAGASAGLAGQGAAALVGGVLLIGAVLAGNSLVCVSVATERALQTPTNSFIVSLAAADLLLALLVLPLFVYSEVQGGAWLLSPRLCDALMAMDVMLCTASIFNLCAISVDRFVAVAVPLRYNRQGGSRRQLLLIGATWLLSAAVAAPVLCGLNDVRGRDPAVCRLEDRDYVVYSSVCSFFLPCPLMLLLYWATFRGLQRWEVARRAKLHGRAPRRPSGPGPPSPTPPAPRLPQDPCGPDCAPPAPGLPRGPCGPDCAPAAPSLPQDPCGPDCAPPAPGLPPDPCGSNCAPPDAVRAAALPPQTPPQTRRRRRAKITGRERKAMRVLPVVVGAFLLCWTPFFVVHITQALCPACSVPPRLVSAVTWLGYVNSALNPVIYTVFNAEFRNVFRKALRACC
The data set is described as follows: D4 dopamine receptor antagonism, Kb from IC50 (cAMP level). The format is cell-based. As for the experimental part:
as §4

One may read the IC50 as the midpoint of a concentration-inhibition curve. Low values mean greater potency in that assay, high ones weaker potency in that assay. In general, EC50 refers to the midpoint of the concentration-response curve. A low value points to greater potency. In general, Kb refers to the affinity of an antagonist, worked out from how it opposes an agonist. A higher Kb goes with a less potent antagonist.

H4 receptor, sequence (Q9H3N8 whole entry): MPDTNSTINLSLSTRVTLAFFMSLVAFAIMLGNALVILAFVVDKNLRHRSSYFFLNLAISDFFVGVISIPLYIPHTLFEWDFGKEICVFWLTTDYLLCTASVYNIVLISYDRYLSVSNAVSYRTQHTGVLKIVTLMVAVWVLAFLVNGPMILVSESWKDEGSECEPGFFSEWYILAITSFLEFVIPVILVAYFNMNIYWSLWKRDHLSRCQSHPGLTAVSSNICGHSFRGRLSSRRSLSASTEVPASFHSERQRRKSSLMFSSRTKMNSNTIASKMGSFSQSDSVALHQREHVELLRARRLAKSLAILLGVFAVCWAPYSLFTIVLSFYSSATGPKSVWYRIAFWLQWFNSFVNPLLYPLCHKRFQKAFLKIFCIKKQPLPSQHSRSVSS
H1 receptor, sequence (P35367 whole entry): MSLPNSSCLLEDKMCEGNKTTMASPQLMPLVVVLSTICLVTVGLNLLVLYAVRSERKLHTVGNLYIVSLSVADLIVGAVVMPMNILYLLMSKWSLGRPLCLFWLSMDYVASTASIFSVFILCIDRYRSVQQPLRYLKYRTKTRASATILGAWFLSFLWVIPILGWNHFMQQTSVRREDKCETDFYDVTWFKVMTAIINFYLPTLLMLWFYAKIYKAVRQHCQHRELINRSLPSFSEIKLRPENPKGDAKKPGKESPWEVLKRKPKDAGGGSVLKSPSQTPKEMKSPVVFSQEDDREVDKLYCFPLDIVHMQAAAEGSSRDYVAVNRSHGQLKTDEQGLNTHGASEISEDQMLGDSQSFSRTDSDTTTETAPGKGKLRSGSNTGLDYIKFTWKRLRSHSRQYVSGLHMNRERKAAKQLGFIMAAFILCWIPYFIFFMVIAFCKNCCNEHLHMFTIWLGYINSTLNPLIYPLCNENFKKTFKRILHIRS
D2 dopamine receptors, sequence (P14416 whole entry): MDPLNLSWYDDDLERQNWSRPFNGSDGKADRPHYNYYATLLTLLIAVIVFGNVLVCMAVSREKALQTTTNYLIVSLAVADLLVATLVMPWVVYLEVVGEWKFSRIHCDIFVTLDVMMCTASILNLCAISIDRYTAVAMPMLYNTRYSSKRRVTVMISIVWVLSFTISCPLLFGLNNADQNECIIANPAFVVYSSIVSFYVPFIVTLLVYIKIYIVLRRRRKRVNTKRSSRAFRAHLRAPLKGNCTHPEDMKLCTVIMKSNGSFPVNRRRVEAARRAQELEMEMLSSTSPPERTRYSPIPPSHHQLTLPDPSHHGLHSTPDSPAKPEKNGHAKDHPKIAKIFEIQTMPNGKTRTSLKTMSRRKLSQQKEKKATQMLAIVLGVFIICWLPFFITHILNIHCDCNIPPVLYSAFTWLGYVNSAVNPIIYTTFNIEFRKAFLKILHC

In the case of `CN1CCN(C2=Nc3cc(Cl)ccc3Nc3ccccc32)CC1` [Clozapine, reference compound], in data set [1], the Basophils is reported as 0.6 ± 0.3%, the ESR was found to be 3.8 ± 0.4 mm/h, the Eosinophils turned out to be 1.0 ± 0.5% and the Hemoglobin worked out at 154.6 ± 1.9 g/L. In [1], this compound yielded a Ht of 43.3 ± 0.5%, a Lymphocytes of 66.6 ± 2.8%, an MCH of 18.4 ± 0.1 pg and an MCHC of 357.4 ± 1.9 g/L. In addition, in data set [1], the MCV is 51.6 ± 0.2 fL, the Metamyelocytes turned out to be 0.0 ± 0.0%, the Monocytes is 6.4 ± 0.9% and the Myelocytes came to 0.0 ± 0.0%. Besides, in data set [1], the “Number of circulating neutrophils in peripheral blood versus control group” value is listed as “significant increase in the number of circulating neutrophils”, the PLT count was 617.6 ± 43.2 10^9/l, the Plasma cells is 0.0 ± 0.0% and the RBC count is reported as 8.39 ± 0.06 10^12/l. In addition, in data set [1], the Rt is on record as 80.8 ± 4.1 10^9/l, the Segmented neutrophils was determined as 21.2 ± 2.0%, the Stab neutrophiles turned out to be 4.6 ± 0.7 % and the WBC count is 11.6 ± 1.1 10^9/l. For the same compound, the “Inhibition of twitches induced by 5-OT” value in [2] was “most evident inhibition of twitches”. Further, the “Patients resistant to typical neuroleptics in whom positive symptoms are weakened” value in data set [3] (human, in vivo) is listed as 30-60%. Also, the “Patients with treatment-resistant schizophrenia whose condition improves” value in data set [3] (long-term use) was 60%. Besides, in data set [4], the “Increase in the risk of sedation” value is recorded as 8.8 times. Besides, in data set [5], the “Sedation: total distance traveled by animals” value is “significantly reduced”.

`Clc1ccc2c(c1)N=C(N1CCNCC1)c1ccccc1N2` [Desmethylclozapine, N-desmethylclozapine, reference compound] registered an IC50 against H1 receptor of 0.015 µM. The 50% effective concentration (EC50) on H4 receptor turned out to be 2.1 µM. Moreover, the Kb on D2 dopamine receptors is 0.052 µM; at D4 dopamine receptors (determined by IC50 values in the set-up of antagonism), 0.19 µM. For the same compound, the “Therapeutic window (Kb, D2/Kb, D4)” value on D4 dopamine receptors (ratio of the applicant's Kb values) is 0.27.

For the compound `OCCOCCN1CCN(C2=Nc3ccccc3Sc3ccccc32)CC1` [Quetiapine, quetiapine], in data set [4], the “Increase in the risk of sedation” value is 3.7 times.
